Experimental data as given in patent US20090124688A1, “Prostaglandin reductase inhibitors” (priority 2006, published 2009).

What was measured:
PGR-2 [1] = target: T1, PGR-2 (Mus musculus, UniProt Q8VDQ1); assay: PGR-2 enzymatic activity: substrate specificity and kinetics; format: biochemical; conditions: for specific activity with PGR-2 (substrate specificity): 15-keto PGE2 replaced with the substrate, 0.5 mM NADPH, 2 hours at 37° C.; for reduction catalyzed by PGR-2 (kinetics studies): recombinant PGR-2, NADPH cofactor
T1 construct: GST (N); made in house; host or cells: E. coli
T1 sequence (Q8VDQ1 whole entry): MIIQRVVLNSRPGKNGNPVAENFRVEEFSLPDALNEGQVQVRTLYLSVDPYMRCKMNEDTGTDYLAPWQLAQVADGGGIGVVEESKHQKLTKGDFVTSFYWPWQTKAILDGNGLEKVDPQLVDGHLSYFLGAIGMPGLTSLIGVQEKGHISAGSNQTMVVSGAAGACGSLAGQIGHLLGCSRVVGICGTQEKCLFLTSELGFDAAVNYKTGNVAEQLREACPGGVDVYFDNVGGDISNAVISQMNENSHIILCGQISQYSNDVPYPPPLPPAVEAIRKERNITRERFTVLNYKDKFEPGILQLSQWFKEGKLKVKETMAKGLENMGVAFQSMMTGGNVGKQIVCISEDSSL
Method: Mouse PGR-2 was recombinantly expressed in E. coli as a GST fusion protein following standard procedures. The recombinant PGR-2 protein thus obtained was used to determine substrate specificity and enzymatic kinetics.
Substrate specificity of PGR-2 was determined using the just-described procedure, except that 15-keto PGE2 was replaced with each of six prostaglandin substrates, each of three downstream metabolites, or leukotriene B4. The substrates were purchased from Cayman Chemical Company (Michigan, USA).
Unlike PGR/LTB4DH, PGR-2 used NADPH as a cofactor much more efficiently than NADH.
The substrate was 15-keto prostaglandin E1, 15-keto prostaglandin E2, 15-keto prostaglandin F1α, 15-keto prostaglandin F2α, 15-keto-fluprostenol isopropyl ester, or 15-keto-fluprostenol, which were purchased from Cayman Chemical Company (Michigan, USA). […] Absorbance at 490 nm was measured by an ELISA plate reader.

PPARs = assay: Reporter gene assay of endogenous PPARs activity in 3T3-L1 cells; format: cell-based, mouse; conditions: 3T3-L1 cells induced to differentiate for two days, transfected with reporter gene
Method: (§1) The effect of prostaglandin on PPAR-γ activity in adipocytes was investigated. After treatment with a medium that induces cell differentiation, 3T3-L1 cells were treated from day 2 to 4 during adipogenesis with 14 μM 15-keto PGE2, 13,14-dihydro-15-keto PGE2, 15-keto PGF2α, 13,14-dihydro-15-keto PGF2α, or 4.5 μM of BRL49653 (a PPAR-γ agonist). See Forman et al., Cell (1995) 83:803-812. At day 6, aggregates of lipid droplets were stained with oil-red O for observation. […] After being induced to differentiate for two days, the 3T3-L1 cells were transfected with a reporter gene.

3T3-L1 cells [2] = assay: Adipogenesis in 3T3-L1 cells, oil-red O staining of lipid droplets; format: cell-based, mouse; conditions: 14 μM, day 2 to 4 during adipogenesis; stained at day 6
Method: as §1

PPAR-α = target: T2, PPAR-α (Homo sapiens, UniProt Q07869); assay: Luciferase reporter with PPAR ligand-binding domain fused to GAL4 DNA-binding domain in 3T3-L1 cells; format: cell-based; conditions: relative to PPAR-γ activation
T2 construct: expressed in transfected cells; host or cells: 3T3-L1
T2 sequence (Q07869 239-466 limits assumed): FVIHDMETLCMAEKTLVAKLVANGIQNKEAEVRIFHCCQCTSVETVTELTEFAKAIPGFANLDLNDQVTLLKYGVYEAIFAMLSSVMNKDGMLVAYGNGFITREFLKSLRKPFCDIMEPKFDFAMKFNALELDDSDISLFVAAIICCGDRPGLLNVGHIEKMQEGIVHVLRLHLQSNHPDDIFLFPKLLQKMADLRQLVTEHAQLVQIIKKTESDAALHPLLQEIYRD
Source text: (§2) A luciferase reporter gene was transfected to 3T3-L1 cells together with the ligand-binding domain of […], PPAR-γ or […] fused to a yeast GAL4 DNA-binding domain.

PPAR-γ [3] = target: T3, PPAR-γ (Homo sapiens, UniProt P37231); assay: as above; format: cell-based
T3 construct: expressed in transfected cells; host or cells: 3T3-L1
T3 sequence (P37231 238-503 limits assumed): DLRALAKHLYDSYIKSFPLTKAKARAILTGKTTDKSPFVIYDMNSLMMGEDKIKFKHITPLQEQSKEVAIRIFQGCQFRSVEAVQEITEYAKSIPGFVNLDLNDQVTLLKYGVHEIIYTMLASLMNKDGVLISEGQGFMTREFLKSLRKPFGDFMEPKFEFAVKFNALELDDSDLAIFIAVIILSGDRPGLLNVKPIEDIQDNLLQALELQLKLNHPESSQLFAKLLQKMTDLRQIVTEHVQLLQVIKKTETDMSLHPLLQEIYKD
Source text: as §2

PPAR-γ target genes = assay: Protein expression of adipogenesis-specific PPAR-γ target genes in 3T3-L1 cells; format: cell-based, mouse
Source text: Also examined was the ability of 15-keto PGE2 to induce protein expression of adipogenesis-specific, PPAR-γ target genes, i.e., IRS-1and -2.

3T3-L1 cells [4] = assay: Glucose transport assay, uptake of 2-deoxy-D-[3H]glucose in differentiated 3T3-L1 cells; format: cell-based, mouse
Method: 3T3-L1cells were induced to differentiate in the same manner as described above. A glucose transport assay was performed by measuring uptake of 2-deoxy-D-[3H]glucose as described by Fingar et al. See Fingar et al., Endocrinology 134:728-735. 1.67 μM of the compound or 45 nM of a PPARs agonist, i.e., Avandia, was added to the cells. 10 μM cytochalasin-B was used to measure background glucose uptake levels.

[5] = system: Female diabetic mice (C57BLKS/J-m+/+Lep^db); assay: Blood glucose levels in diabetic mice; format: in vivo, mouse; conditions: 25 mg/kg intraperitoneally twice a day for two days; fasted 48th through 52nd hour
Method: The in vivo effect compound 45 on glucose metabolism was also investigated. Female diabetic mice were obtained from the Jackson Laboratory (C57BLKS/J-m+/+Lep^db, 12 to 13 weeks old). These mice were characterized as insulin-resistant and hyperglycemic. 25 mg/kg of 2,2′-dihydroxychalcone (n=8) or placebo (n=4, final concentration against body fluid: 0.5% DMSO/1% ethanol) was injected intraperitoneally to the mice twice a day for two days. The mice were then fasted from the 48th hour through 52nd hour after the first injection. Blood samples were collected from the retro-orbital sinus before the first injection, and every two hours after two days of treatment. Blood glucose levels were measured by an electrode-type blood glucose meter (HORIBA, AntSense II, Japan).

PGR-2 [6] = assay: RNA interference silencing of PGR-2 expression in 3T3-L1 cells; format: cell-based, mouse; conditions: transfection into 3T3-L1 fibroblasts or differentiating pre-adipocytes
Source text: (§3) An RNA interference (RNAi) approach was used to silence PGR-2 expression. Two small interfering RNA (siRNA) duplexes, i.e., […] (SEQ ID NO:7) and […] (SEQ ID NO:8), were annealed first and then introduced into 3T3-L1 fibroblasts or differentiating pre-adipocytes by transfection using oligofectamine (Invitrogen). Transfection of the siRNA duplexes reduced PGR-2 expression. In another experiment, transfection of the siRNA duplexes increased transcriptional activation of PPAR-γ. Thus, one can modulate PPAR-γ activity via silencing PGR-2 expression by RNA interference.

PPAR-γ [7] = assay: Transcriptional activation of PPAR-γ after siRNA transfection; format: cell-based; conditions: transfection of siRNA duplexes
Source text: as §3

CCCCC[C@H](O)/C=C/[C@@H]1[C@@H](CC(=O)CCCCC(=O)O)[C@@H](O)C[C@H]1O [6-keto PGF1α]
specific activity with PGR-2 (substrate specificity) (PGR-2 [1]): no specific activity was detected

CCCCCC(=O)CC[C@H]1[C@H](O)CC(=O)[C@@H]1C/C=C\CCCC(=O)O [13,14-dihydro-15-keto PGE2]
specific activity with PGR-2 (substrate specificity) (PGR-2 [1]): no specific activity was detected
endogenous PPARs activity (reporter gene) (PPARs): failed to increase PPARs activity

CCCCCC(=O)CC[C@@H]1[C@@H](C/C=C\CCCC(=O)O)[C@@H](O)C[C@H]1O [13,14-dihydro-15-keto PGF2α]
endogenous PPARs activity (reporter gene) (PPARs): failed to increase PPARs activity

CCCCCC(=O)/C=C/[C@H]1[C@H](O)CC(=O)[C@@H]1CCCCCCC(=O)O [15-keto PGE1, 15-keto prostaglandin E1]
specific activity with PGR-2 (substrate specificity) (PGR-2 [1]): reacted specifically
reduction catalyzed by PGR-2 (kinetics studies) (PGR-2 [1]): catalyzed reduction

CCCCCC(=O)/C=C/[C@H]1[C@H](O)CC(=O)[C@@H]1C/C=C\CCCC(=O)O [15-keto PGE2, 15-keto prostaglandin E2]
reduction catalyzed by PGR-2 (kinetics studies) (PGR-2 [1]): catalyzed reduction
adipogenesis (lipid droplets stained with oil-red O) (3T3-L1 cells [2]): effectively enhanced adipogenesis at a level similar to BRL49653
endogenous PPARs activity (reporter gene) (PPARs): enhanced endogenous PPARs activity significantly
activation of PPAR-α (GAL4 fusion, luciferase reporter) (PPAR-α): to a lesser degree
activation of PPAR-γ (GAL4 fusion, luciferase reporter) (PPAR-γ [3]): activated
amount of IRS-1 protein (PPAR-γ target genes): did not increase
PPAR-γ1 and PPAR-γ2 expression (PPAR-γ target genes; added with MIX, insulin and dexamethasone): significantly enhanced
expression of aP2, an adipocyte-specific marker (PPAR-γ target genes; even in the absence of MIX): strongly induced
IRS-2 expression (PPAR-γ target genes; in the presence of insulin and dexamethasone): enhanced the expression to a level similar to MIX

CCCCCC(=O)/C=C/[C@@H]1[C@@H](CCCCCCC(=O)O)[C@@H](O)C[C@H]1O [15-keto PGF1α, 15-keto prostaglandin F1α]
specific activity with PGR-2 (substrate specificity) (PGR-2 [1]): reacted specifically
reduction catalyzed by PGR-2 (kinetics studies) (PGR-2 [1]): catalyzed reduction

CCCCCC(=O)/C=C/[C@@H]1[C@@H](C/C=C\CCCC(=O)O)[C@@H](O)C[C@H]1O [15-keto PGF2α, 15-keto prostaglandin F2α]
specific activity with PGR-2 (substrate specificity) (PGR-2 [1]): reacted specifically
reduction catalyzed by PGR-2 (kinetics studies) (PGR-2 [1]): catalyzed reduction
endogenous PPARs activity (reporter gene) (PPARs): enhanced endogenous PPARs activity significantly
activation of PPAR-α (GAL4 fusion, luciferase reporter) (PPAR-α): to a lesser degree
activation of PPAR-γ (GAL4 fusion, luciferase reporter) (PPAR-γ [3]): activated

CC(C)OC(=O)CCC/C=C\C[C@@H]1[C@@H](/C=C/C(=O)COc2cccc(C(F)(F)F)c2)[C@H](O)C[C@@H]1O [15-keto fluprostenol isopropyl ester]
reduction catalyzed by PGR-2 (kinetics studies) (PGR-2 [1]): catalyzed reduction

O=C(O)CCC/C=C\C[C@@H]1[C@@H](/C=C/C(=O)COc2cccc(C(F)(F)F)c2)[C@H](O)C[C@@H]1O [15-keto fluprostenol]
reduction catalyzed by PGR-2 (kinetics studies) (PGR-2 [1]): catalyzed reduction

O=C(c1cc2cc(Cl)ccc2oc1=O)c1cc2cc(Cl)ccc2oc1=O [Compound 27]
ability to enhance glucose uptake compared with Avandia (3T3-L1 cells [4]; 1.67 μM compound vs 45 nM Avandia): comparable to that of Avandia
increase of glucose uptake (3T3-L1 cells [4]; differentiated 3T3-L1 cells, 1.67 μM compound, 100 nM insulin to stimulate uptake): 30 folds

O=C(/C=C/c1ccccc1O)c1ccccc1O [Compound 45, 2,2′-dihydroxychalcone]
blood glucose levels compared to placebo controls [5]: significant reduction

CCCCC/C=C\C[C@@H](O)/C=C/C=C/C=C\[C@@H](O)CCCC(=O)O [leukotriene B4]
specific activity with PGR-2 (substrate specificity) (PGR-2 [1]): no specific activity was detected

SEQ ID NO:7: small interfering RNA (siRNA) duplex gaguucaguuuaccggaug to silence PGR-2 expression (GAGUUCAGUUUACCGGAUG; chemistry not given here)
PGR-2 expression (PGR-2 [6]): reduced
transcriptional activation of PPAR-γ (PPAR-γ [7]): increased

SEQ ID NO:8: small interfering RNA (siRNA) duplex guucaagugaggacucuuu to silence PGR-2 expression (GUUCAAGUGAGGACUCUUU; chemistry not given here)
PGR-2 expression (PGR-2 [6]): reduced
transcriptional activation of PPAR-γ (PPAR-γ [7]): increased
